{
  "source": "patent US20120083522A1",
  "about": "“MODULATION OF INFLAMMATORY RESPONSES BY FACTOR XI” (Isis Pharmaceuitcals, inc., priority 2009, published 2012)",
  "format_in_all_cases": "in vivo",
  "key": {"[1]": {"test": "Tolerability in CD1 mice: hematology assays (Example 25)", "parameters": "RBC / WBC / Neutrophil / Lymphocyte / Platelets: unit not given here", "conditions": "50 mg/kg s.c. twice per week for 6 weeks, blood"}, "[2]": {"test": "Tolerability in CD1 mice: body and organ weight (Example 25)", "conditions": "50 mg/kg s.c. twice per week for 6 weeks"}, "[3]": {"test": "Tolerability in CD1 mice: kidney function (Example 25)", "conditions": "50 mg/kg s.c. twice per week for 6 weeks, plasma"}, "[4]": {"test": "Tolerability in CD1 mice: liver function (Example 25)", "conditions": "50 mg/kg s.c. twice per week for 6 weeks, plasma"}},
  "note": "In the oligonucleotide strings, read from the 5' end, every base follows the letter of its sugar. An asterisk marks phosphorothioate; unmarked linkages are phosphodiester. Other units and linkages are bracketed, terminal groups are in braces. A string of capitals states the bases alone. e = 2'-O-(2-methoxyethyl) (MOE); [5mC] = 5-methylcytosine; d = 2'-deoxy (DNA)",
  "data": [
    {"substance": "ISIS 445503: microwalk gapmer of Table 51 (antisense eG*e[5mC]*eA*eT*eT*eG*dG*dT*dG*d[5mC]*dA*d[5mC]*dA*dG*eT*eT*eT*e[5mC]*eT*eG)", "values": [
      {"measurement": "HCT", "setting": "[1]", "result": 46, "unit": "%"},
      {"measurement": "Hemoglobin", "setting": "[1]", "result": 13.6, "unit": "g/dL"},
      {"measurement": "Lymphocyte", "setting": "[1]", "result": 6436},
      {"measurement": "Neutrophil", "setting": "[1]", "result": 1475},
      {"measurement": "Platelets", "setting": "[1]", "result": 309},
      {"measurement": "RBC", "setting": "[1]", "result": 9.2},
      {"measurement": "WBC", "setting": "[1]", "result": 8},
      {"measurement": "Body weight (increase over PBS control weight before start of treatment)", "setting": "[2]", "result": 9, "unit": "g"},
      {"measurement": "Kidney weight as percentage of body weight", "setting": "[2]; end of study", "result": 1.4, "unit": "%"},
      {"measurement": "Liver weight as percentage of body weight", "setting": "[2]; end of study", "result": 8, "unit": "%"},
      {"measurement": "Spleen weight as percentage of body weight", "setting": "[2]; end of study", "result": 0.6, "unit": "%"},
      {"measurement": "BUN", "setting": "[3]", "result": 29, "unit": "mg/dL"},
      {"measurement": "ALT", "setting": "[4]", "result": 1314, "unit": "IU/L"},
      {"measurement": "AST", "setting": "[4]", "result": 852, "unit": "IU/L"},
      {"measurement": "Albumin", "setting": "[4]", "result": 3.4, "unit": "mg/dL"},
      {"measurement": "Bilirubin", "setting": "[4]", "result": 0.28, "unit": "mg/dL"}
    ]}
  ]
}
